Measured values as given in ChEMBL document CHEMBL1201862, “PubChem BioAssay data set” (2004).
Activity calls are given as the source filed them.

Experiments:
[1] = target: 5'-AMP-activated protein kinase catalytic subunit alpha-1 (Homo sapiens, UniProt Q13131); assay type: functional
[2] = target: Calcium/calmodulin-dependent protein kinase type II subunit gamma (Homo sapiens, UniProt Q13555); assay type: functional
[3] = target: Serine/threonine-protein kinase Chk2 (Homo sapiens, UniProt O96017); assay type: functional;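 also: CHEK2 entry within a kinome-wide screening panel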
[4] = target: Serine/threonine-protein kinase PAK 1 (Homo sapiens, UniProt Q13153); assay type: functional
[5] = target: Tyrosine-protein kinase JAK3 (Homo sapiens, UniProt P52333); assay type: functional
[6] = target: Proto-oncogene tyrosine-protein kinase Src (Homo sapiens, UniProt P12931); assay type: functional;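 also: SRC entry within a kinome-wide kinase profiling panel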
[7] = target: Serine/threonine-protein kinase Nek4 (Homo sapiens, UniProt P51957); assay type: functional
Focal adhesion kinase 1 = Focal adhesion kinase 1 (Homo sapiens, UniProt Q05397); assay type: functional;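 also: measured as one member of a kinome panel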
[8] = target: 3-phosphoinositide-dependent protein kinase 1 (Homo sapiens, UniProt O15530); assay type: functional;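 also: value comes from the Navigating the Kinome panel, PDPK1 member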
[9] = target: Mitogen-activated protein kinase 12 (Homo sapiens, UniProt P53778); assay type: functional;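 also: measured as one member of a kinome-wide kinase profiling panel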
[10] = target: Macrophage colony-stimulating factor 1 receptor (Homo sapiens, UniProt P07333); assay type: functional;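 also: value comes from the Navigating the Kinome screening panel, CSF1R member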
Chain of Macrophage colony-stimulating factor 1 receptor (P07333 whole entry): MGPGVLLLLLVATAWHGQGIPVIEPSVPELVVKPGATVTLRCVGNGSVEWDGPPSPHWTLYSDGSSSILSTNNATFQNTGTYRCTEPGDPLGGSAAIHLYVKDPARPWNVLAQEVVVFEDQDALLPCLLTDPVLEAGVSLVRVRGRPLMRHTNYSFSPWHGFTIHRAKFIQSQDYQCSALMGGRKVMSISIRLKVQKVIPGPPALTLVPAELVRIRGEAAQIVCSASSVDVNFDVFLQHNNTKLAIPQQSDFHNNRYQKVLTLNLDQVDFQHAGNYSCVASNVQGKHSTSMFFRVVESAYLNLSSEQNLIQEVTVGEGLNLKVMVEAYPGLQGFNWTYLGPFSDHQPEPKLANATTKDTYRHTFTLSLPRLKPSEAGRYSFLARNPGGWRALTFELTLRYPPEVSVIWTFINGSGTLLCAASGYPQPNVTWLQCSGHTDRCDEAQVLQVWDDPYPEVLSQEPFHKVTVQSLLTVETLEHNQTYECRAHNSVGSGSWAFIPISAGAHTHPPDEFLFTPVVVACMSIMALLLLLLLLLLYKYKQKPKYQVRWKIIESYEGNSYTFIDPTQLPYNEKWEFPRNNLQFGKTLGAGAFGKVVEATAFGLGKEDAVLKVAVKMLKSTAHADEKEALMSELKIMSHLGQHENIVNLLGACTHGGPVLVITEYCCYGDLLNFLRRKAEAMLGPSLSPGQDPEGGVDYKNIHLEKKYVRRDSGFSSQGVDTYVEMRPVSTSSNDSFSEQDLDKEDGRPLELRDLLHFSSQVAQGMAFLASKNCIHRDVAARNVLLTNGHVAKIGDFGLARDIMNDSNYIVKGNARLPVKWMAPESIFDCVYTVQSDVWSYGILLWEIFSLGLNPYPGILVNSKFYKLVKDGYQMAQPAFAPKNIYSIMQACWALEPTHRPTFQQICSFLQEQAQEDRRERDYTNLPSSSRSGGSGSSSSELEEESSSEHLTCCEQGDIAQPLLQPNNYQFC

[11] = test system: Streptococcus sp. 'group A'; experiment: growth inhibition of control SK(-) GAS strain, dose response, counter-screen for streptokinase expression inhibitor project, luminescence, kanamycin, BacTiterGlo, confirmation (AID 1900); assay type: functional, organism-based
[12] = Luminescence Cell-Based Dose Response HTS to Identify Inhibitors of 5'UTR Stem-Loop Driven Prion Protein mRNA Translation in H4 Neuroglioblastoma Cells. [Related pubchem assays: 1827 (Project Summary), 1813 (Primary HTS)]; assay type: functional
[13] = inhibitors of SNCA 5'UTR-driven reporter translation, confirmation, H4 neuroglioma cells, luminescence (AID 1988); assay type: functional, cell-based
Streptococcus = experiment: Group A Streptococcus viability loss, dose response, counter-screen for streptokinase expression inhibitor project, luminescence, BacTiterGlo (AID 1915); assay type: functional, organism-based;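 also: potency for reduction of bacterial viability or growth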
INS1 = experiment: beta cell apoptosis inhibitors, cytokine rescue, dose response, luminescence, retest (AID 449756); assay type: functional, cell-based; conditions: Rattus norvegicus;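 also: cell death triggered by IL-1 beta plus TNF-alpha plus IFN-gamma mixture; protective hits raise ATP signal compared with cytokine alone wells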
[14] = target: T1, RNA-binding protein pos-1 (Caenorhabditis elegans, UniProt G5EF15); experiment: inhibitors of POS-1/mex-3 RNA binding, dose response, biochemical, fluorescence polarization (AID 1964);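 also: purified POS-1 fused to maltose binding protein made in E. coli; potency of compounds blocking POS-1 binding to fluorescent RNA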
T1 sequence (G5EF15 whole entry): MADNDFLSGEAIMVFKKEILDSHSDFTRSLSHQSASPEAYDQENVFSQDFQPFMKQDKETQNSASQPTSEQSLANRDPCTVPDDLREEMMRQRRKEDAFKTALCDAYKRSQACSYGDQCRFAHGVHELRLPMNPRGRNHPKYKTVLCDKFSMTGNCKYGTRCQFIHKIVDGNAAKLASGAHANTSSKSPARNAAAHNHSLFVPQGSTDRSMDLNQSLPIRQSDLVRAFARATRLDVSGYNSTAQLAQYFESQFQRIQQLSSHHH

[15] = target: DNA dC->dU-editing enzyme APOBEC-3A (Homo sapiens, UniProt P31941); experiment: APOBEC3A DNA deaminase inhibitors, dose response, biochemical (AID 504722); assay type: functional
Chain of DNA dC->dU-editing enzyme APOBEC-3A (P31941 whole entry): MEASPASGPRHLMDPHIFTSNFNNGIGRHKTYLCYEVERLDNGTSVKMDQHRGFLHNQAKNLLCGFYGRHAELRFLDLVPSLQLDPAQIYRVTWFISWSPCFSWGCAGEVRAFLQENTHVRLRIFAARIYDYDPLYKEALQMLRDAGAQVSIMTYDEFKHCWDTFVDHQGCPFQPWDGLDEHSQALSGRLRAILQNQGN

[16] = target: Glucose-6-phosphate 1-dehydrogenase (Homo sapiens, UniProt P11413); experiment: human G6PD enzyme inhibitors, dose response, selectivity assay for P. falciparum G6PD inhibitor project, biochemical, fluorescence (AID 504792); assay type: functional
[17] = target: DNA dC->dU-editing enzyme APOBEC-3G (Homo sapiens, UniProt Q9HC16); experiment: Dose Response confirmation of small molecule APOBEC3G DNA Deaminase Inhibitors via a fluorescence-based single-stranded DNA deaminase assay. [Related pubchem assays (depositor defined):AID493012, AID493028]; assay type: functional
Chain of DNA dC->dU-editing enzyme APOBEC-3G (Q9HC16 whole entry): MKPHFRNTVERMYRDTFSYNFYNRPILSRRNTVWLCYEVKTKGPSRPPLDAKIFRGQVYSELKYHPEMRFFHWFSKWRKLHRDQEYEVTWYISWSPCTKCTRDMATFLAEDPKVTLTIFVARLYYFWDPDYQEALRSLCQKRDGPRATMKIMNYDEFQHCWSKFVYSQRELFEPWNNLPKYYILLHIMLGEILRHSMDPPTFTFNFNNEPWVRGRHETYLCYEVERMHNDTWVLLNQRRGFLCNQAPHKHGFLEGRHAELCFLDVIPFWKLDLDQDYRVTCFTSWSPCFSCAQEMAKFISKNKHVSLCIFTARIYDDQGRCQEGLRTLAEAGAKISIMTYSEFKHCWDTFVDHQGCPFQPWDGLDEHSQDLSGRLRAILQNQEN

[18] = target: Intestinal-type alkaline phosphatase (Mus musculus, UniProt P24822); experiment: mouse intestinal alkaline phosphatase activators, dose response, biochemical, luminescence, uHTS hits (AID 488783); assay type: functional
[19] = target: T2, Alkaline phosphatase, tissue-nonspecific isozyme (Homo sapiens, UniProt P05186); experiment: TNAP enzyme activators, dose response, selectivity assay for mouse IAP activator project, biochemical, TNAP isozyme, mouse IAP uHTS hits (AID 488880); assay type: functional
T2 sequence (P05186 whole entry): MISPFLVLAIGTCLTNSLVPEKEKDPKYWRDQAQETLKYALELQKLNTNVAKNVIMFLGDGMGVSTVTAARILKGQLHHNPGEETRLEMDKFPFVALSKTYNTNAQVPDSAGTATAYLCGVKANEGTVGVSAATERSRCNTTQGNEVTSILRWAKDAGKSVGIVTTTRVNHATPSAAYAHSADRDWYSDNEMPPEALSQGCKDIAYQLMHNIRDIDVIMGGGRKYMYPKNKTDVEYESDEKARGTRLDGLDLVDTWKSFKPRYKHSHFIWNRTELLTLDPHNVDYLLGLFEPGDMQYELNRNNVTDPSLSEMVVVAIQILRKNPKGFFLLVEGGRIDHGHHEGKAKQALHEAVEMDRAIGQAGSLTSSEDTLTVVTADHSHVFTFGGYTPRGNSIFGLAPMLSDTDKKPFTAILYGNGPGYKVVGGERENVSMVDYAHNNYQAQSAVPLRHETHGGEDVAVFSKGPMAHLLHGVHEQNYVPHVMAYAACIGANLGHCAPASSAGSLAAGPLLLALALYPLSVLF

[20] = target: G-protein coupled receptor 35 (Homo sapiens, UniProt Q9HC97); experiment: GPR35 antagonists blocking zaprinast-driven arrestin recruitment, primary screen, imaging, U2OS, beta-arrestin-GFP, zaprinast agonist (AID 2058); assay type: functional;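 also: antagonist potency meaning inhibition of agonist-induced arrestin redistribution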
[21] = inhibitors of firefly luciferase expression or activity, dose response, H4 neuroglioma cells, luminescence (AID 1990); assay type: functional, cell-based
[22] = target: Sphingosine 1-phosphate receptor 4 (Homo sapiens, UniProt O95977); experiment: Fluorescence dose response cell-based high throughput screening assay for antagonists of the Sphingosine 1-Phosphate Receptor 4 (S1P4). [Related pubchem assays: 1524 (Confirmation in triplicates.), 1510 (Primary screen.)]; assay type: functional
[23] = target: Heat shock protein HSP 90-alpha (Homo sapiens, UniProt P07900); assay type: functional, organism-based
Beta Lactamase = Beta Lactamase (Pseudomonas aeruginosa, UniProt Q932Y6); experiment: beta-lactamase reporter inhibitor potency, dose response, artefact control for TLR9-MyD88 binding inhibitor project, BLA reporter cells, FRET fluorescence (AID 588341); assay type: cell-based;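 also: cell based assay in CHO-K1 cells stably expressing beta-lactamase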
Chain of Beta Lactamase (Q932Y6 whole entry): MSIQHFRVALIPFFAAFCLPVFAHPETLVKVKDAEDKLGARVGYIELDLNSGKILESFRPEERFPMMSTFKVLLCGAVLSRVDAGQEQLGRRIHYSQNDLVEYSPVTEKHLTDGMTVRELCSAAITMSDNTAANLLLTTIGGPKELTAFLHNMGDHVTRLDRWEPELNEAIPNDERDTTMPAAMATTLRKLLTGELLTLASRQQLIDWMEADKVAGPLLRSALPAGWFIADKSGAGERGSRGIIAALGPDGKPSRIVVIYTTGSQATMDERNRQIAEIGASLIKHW

Vero = experiment: cells; assay type: functional; conditions: Chlorocebus sabaeus
Fatty acid synthase = Fatty acid synthase (Homo sapiens, UniProt P49327); experiment: FAS thioesterase domain inhibitors, dose response, biochemical, kinetic fluorescence intensity (AID 624326); assay type: functional;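 also: rate of fluorescence rise from hydrolysis of a fluorogenic O-methyl fluorescein ester substrate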
Chain of Fatty acid synthase (P49327 whole entry, the tested form may be a part): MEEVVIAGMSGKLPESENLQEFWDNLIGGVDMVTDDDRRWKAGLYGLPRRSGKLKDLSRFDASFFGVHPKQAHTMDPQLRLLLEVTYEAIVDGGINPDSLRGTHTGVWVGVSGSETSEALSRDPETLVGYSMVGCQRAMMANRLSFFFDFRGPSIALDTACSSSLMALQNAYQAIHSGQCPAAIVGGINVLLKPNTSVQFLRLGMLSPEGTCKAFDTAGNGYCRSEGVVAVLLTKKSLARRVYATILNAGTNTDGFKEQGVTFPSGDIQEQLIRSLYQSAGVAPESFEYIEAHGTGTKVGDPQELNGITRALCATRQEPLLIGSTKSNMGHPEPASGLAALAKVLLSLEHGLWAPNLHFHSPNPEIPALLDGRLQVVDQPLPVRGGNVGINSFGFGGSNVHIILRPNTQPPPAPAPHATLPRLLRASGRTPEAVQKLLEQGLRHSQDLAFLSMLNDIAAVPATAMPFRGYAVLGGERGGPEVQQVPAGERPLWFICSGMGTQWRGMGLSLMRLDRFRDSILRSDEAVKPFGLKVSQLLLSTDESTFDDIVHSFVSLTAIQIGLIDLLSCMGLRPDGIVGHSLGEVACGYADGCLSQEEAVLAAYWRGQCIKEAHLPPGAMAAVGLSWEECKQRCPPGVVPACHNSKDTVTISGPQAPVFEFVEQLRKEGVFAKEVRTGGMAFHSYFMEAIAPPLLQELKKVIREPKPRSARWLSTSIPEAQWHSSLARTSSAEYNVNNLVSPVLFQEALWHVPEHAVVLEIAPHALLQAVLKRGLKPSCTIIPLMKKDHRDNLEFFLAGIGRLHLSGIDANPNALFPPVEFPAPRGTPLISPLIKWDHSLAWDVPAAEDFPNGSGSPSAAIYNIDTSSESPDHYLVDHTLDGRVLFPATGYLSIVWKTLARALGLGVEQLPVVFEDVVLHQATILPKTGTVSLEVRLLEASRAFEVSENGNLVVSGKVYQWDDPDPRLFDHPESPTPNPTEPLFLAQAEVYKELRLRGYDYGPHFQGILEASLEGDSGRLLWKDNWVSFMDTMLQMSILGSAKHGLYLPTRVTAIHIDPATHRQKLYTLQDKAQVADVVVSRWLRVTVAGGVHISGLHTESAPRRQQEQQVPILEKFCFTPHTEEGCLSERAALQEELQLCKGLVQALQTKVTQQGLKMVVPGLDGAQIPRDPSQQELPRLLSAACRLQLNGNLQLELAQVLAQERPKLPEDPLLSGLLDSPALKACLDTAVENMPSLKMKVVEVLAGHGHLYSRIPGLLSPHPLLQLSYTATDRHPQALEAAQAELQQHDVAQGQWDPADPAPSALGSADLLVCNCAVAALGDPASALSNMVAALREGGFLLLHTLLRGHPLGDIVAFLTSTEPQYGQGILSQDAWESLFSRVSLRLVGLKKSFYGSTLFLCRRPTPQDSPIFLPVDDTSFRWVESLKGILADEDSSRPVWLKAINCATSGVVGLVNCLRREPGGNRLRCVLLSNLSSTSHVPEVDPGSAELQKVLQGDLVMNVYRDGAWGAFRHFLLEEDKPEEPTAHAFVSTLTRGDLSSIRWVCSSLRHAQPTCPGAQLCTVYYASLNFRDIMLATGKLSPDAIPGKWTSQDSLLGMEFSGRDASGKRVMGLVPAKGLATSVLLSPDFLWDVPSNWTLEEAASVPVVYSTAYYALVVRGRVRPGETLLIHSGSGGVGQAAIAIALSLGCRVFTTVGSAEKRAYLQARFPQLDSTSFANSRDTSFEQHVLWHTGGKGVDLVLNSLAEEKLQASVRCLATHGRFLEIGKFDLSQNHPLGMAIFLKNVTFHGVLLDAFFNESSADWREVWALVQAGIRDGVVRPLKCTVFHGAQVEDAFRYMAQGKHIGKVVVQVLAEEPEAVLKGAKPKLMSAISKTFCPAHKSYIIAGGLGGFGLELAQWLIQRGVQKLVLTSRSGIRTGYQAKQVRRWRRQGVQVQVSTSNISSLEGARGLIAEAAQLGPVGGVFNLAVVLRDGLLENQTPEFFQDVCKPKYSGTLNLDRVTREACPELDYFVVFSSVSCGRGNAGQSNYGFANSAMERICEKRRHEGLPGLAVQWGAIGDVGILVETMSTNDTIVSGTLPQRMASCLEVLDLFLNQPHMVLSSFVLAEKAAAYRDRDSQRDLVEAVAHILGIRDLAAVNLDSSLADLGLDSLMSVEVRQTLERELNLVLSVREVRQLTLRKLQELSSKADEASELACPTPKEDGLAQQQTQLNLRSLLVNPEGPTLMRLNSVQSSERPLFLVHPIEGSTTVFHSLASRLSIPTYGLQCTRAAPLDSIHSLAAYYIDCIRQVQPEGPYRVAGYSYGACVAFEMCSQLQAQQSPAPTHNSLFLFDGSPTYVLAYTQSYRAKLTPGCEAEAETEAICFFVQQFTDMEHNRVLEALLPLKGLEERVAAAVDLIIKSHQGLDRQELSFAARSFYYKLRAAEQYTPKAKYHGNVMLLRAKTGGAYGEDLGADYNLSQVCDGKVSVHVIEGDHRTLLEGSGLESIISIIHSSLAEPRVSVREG

Chain of Calcium/calmodulin-dependent protein kinase type II subunit gamma (Q13555 whole entry): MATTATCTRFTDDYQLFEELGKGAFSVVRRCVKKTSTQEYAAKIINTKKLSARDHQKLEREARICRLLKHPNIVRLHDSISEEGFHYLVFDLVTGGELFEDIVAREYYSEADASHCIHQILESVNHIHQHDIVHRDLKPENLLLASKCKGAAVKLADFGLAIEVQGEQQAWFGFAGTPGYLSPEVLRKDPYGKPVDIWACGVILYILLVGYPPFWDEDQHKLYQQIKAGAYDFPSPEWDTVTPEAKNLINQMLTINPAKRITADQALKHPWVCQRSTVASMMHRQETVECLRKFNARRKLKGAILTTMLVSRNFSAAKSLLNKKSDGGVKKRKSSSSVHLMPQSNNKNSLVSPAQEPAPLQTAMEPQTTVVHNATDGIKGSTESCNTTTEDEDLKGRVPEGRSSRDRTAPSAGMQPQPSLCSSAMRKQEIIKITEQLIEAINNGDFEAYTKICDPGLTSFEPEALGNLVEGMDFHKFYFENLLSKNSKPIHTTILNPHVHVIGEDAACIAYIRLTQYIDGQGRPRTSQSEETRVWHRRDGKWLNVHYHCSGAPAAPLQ

O=C1Nc2ccc3ncsc3c2C1=CNc1ccc(S(=O)(=O)Nc2ccccn2)cc1
Ki [1]: 0.00398 µM (active) | Ki [2]: 0.2 µM (active) | Ki [3]: 0.158 µM (active) | Ki [4]: 2 µM (active) | Ki [5]: 0.0251 µM (active) | Ki [6]: 0.158 µM (active) | Ki [7]: 0.501 µM (active) | Ki (Focal adhesion kinase 1): > 1.58 µM (inactive) | Ki [8]: 0.0158 µM (active) | Ki [9]: 3.16 µM (active) | Ki [10]: 0.251 µM (active)

Cc1ccc(NC2=C/C(=N\S(=O)(=O)c3cccs3)c3ccccc3C2=O)c(C)c1
EC50 [11]: 2.99 µM (active) | EC50 [12]: 8.59 µM (inconclusive) | EC50 [13]: 8.43 µM (inconclusive) | EC50 (Streptococcus): 3.08 µM (active) | AC50 (INS1): 0.404 µM (active)

Oc1ccc(-c2cn3c(n2)SCC3)cc1O
EC50 [14]: 3.63 µM (active) | IC50 [15]: > 100 µM (inactive) | IC50 [16]: 41 µM (inactive) | IC50 [17]: 12.6 µM (active) | EC50 [18]: 21 µM (active) | EC50 [19]: 70.9 µM (active)

CC(=O)N(C1=C(Cl)C(=O)c2ccccc2C1=O)C1CCCCC1
IC50 [20]: 5.55 µM (active) | EC50 [21]: 9.51 µM (active) | EC50 [14]: 139 µM (active) | EC50 [11]: 6.92 µM (active) | EC50 [12]: 20.5 µM (active) | EC50 [13]: > 120 µM (not active) | IC50 [22]: 2.03 µM (active) | EC50 (Streptococcus): > 150 µM (not active) | IC50 [15]: > 100 µM (inactive) | IC50 [17]: 7.68 µM (active) | AC50 [23]: 0.524 µM (active) | IC50 (Beta Lactamase): 5.3 µM (active) | CC50 (Vero): 13.3 µM (active) | IC50 (Fatty acid synthase): 4.54 µM (active)
